Patent US4443436A, “C-20-Modified macrolide derivatives of the macrolide antibiotics tylosin, desmycosin, macrocin, and lactenocin” (Eli Lilly and Company, priority 1982, dated 1984)
In brackets after ≈: the same amount, converted by molar mass. Read-outs that look alike come from different tables or passages of the source.

Legend:
[1] = test system: Staphylococcus aureus S13E; assay: MIC, standard agar-dilution assay, Staphylococcus aureus S13E; type: cell-based
[2] = test system: Streptococcus pyogenes C203; assay: In vivo protection of mice experimentally infected with S. pyogenes C203; conditions: mice, doses given 1 and 4 hours post-infection; for ED50: Streptococcus pyogenes
Protocol: The C-20 modified derivatives of this invention have shown in vivo antimicrobial activity against experimentally-induced infections in laboratory animals. When two doses of test compound were administered to mice experimentally infected with S. pyogenes C203, the activity observed was measured as an ED50 value [effective dose in mg/kg to protect 50% of the test animals: see Warren Wick, et al., J. Bacteriol. 81, 233-235 (1961)].

[3] = test system: Pasteurella multocida 17E; assay: MIC, broth-dilution microtiter test, Pasteurella multocida 17E; type: cell-based; conditions: Pasteurella multocida 17E, bovine isolate, broth-dilution microtiter
Excerpt: (§1) The MIC's in Table X were obtained using conventional broth-dilution microtiter tests.

[4] = test system: Haemophilus influenzae R252; assay: MIC, standard agar-dilution assay, Haemophilus influenzae R252; type: cell-based
[5] = test system: Staphylococcus epidermidis EPI1; assay: MIC, standard agar-dilution assay, Staphylococcus epidermidis EPI1; type: cell-based
[6] = test system: Staphylococcus aureus X400; assay: MIC, standard agar-dilution assay, Staphylococcus aureus X400; type: cell-based
[7] = test system: Staphylococcus aureus X1.1; assay: MIC, standard agar-dilution assay, Staphylococcus aureus X1.1; type: cell-based
[8] = test system: Staphylococcus aureus; assay: MIC, broth-dilution microtiter test, Staphylococcus aureus; type: cell-based
Excerpt: as §1

[9] = test system: Streptococcus Group 9960; assay: MIC, standard agar-dilution assay, Streptococcus Group 9960; type: cell-based; conditions: Streptococcus Group 9960, agar dilution
[10] = test system: Staphylococcus aureus V41; assay: MIC, standard agar-dilution assay, Staphylococcus aureus V41; type: cell-based
[11] = test system: Mycoplasma gallisepticum; assay: MIC, broth-dilution microtiter test, Mycoplasma gallisepticum; type: cell-based
Excerpt: as §1

[12] = test system: Staphylococcus epidermidis EPI2; assay: MIC, standard agar-dilution assay, Staphylococcus epidermidis EPI2; type: cell-based
[13] = test system: Mycoplasma synoviae; assay: MIC, broth-dilution microtiter test, Mycoplasma synoviae; type: cell-based
Excerpt: as §1

[14] = test system: Streptococcus pneumoniae Park I; assay: microbe, parasite or virus in culture; type: cell-based; conditions: Streptococcus pneumoniae
[15] = test system: Mycoplasma hyorhinis; assay: MIC, broth-dilution microtiter test, Mycoplasma hyorhinis; type: cell-based
Excerpt: as §1

[16] = test system: Streptococcus bovis 80; assay: MIC, broth-dilution microtiter test, Streptococcus bovis 80; type: cell-based; conditions: Streptococcus bovis 80, broth-dilution microtiter
Excerpt: as §1

[17] = test system: Streptococcus Group D X66; assay: MIC, standard agar-dilution assay, Streptococcus Group D X66; type: cell-based; conditions: Streptococcus Group D X66, agar dilution
[18] = test system: Pasteurella multocida 60A; assay: MIC, broth-dilution microtiter test, Pasteurella multocida 60A; type: cell-based; conditions: Pasteurella multocida 60A, avian isolate, broth-dilution microtiter
Excerpt: as §1

[19] = test system: Pasteurella hemolytica 22C; assay: MIC, broth-dilution microtiter test, Pasteurella hemolytica 22C; type: cell-based; conditions: Pasteurella hemolytica 22C, broth-dilution microtiter
Excerpt: as §1

[20] = test system: Streptococcus pyogenes C203; assay: MIC, standard agar-dilution assay, Streptococcus pyogenes C203; type: cell-based
[21] = test system: Haemophilus influenzae Holt; assay: MIC, standard agar-dilution assay, Haemophilus influenzae Holt; type: cell-based
[22] = C203, sc, subcutaneous, read-out: ED50, Subcutaneous
[23] = C203, oral, read-out: ED50, Oral
[24] = Staphylococcus epidermidis, EPI1
[25] = Streptococcus equinus, read-out: MIC
[26] = Mycoplasma hyorhinis, broth-dilution microtiter, read-out: MIC

Molecule `CCC1CC(C)C(=O)C=CC(C)=CC(COC2OC(C)C(O)C(O)C2OC)C(CC)OC(=O)CC(O)C(C)C1OC1OC(C)C(O)C(N(C)C)C1O` (stereo not shown) [Compound 60, 20-DH-DO-Lactenocin] has an MIC ([1]; Staphylococcus aureus, S13E) of 0.25 µg/mL (≈ 0.336 µM), an ED50 [2, 22] of 3.9 mg/kg and an ED50 [2, 23] of 46 mg/kg. The MIC ([3]; read-out: MIC) was 25 µg/mL (≈ 33.6 µM), the MIC ([4]; Haemophilus influenzae, R252) was 16 µg/mL (≈ 21.5 µM) and the MIC [5, 24] was 0.25 µg/mL (≈ 0.336 µM). The MIC ([6]; Staphylococcus aureus, X400) was 0.5 µg/mL (≈ 0.672 µM), the MIC ([7]; Staphylococcus aureus, X1.1) was 0.25 µg/mL (≈ 0.336 µM) and the MIC [8] was 0.78 µg/mL (≈ 1.05 µM). It also gave an MIC ([9]; GROUP9960, read-out: MIC) of 8 µg/mL (≈ 10.8 µM), an MIC ([10]; Staphylococcus aureus, V41) of 0.25 µg/mL (≈ 0.336 µM) and an MIC ([11]; Mycoplasmoides gallisepticum) of 1.56 µg/mL (≈ 2.1 µM). For the same molecule, the MIC ([12]; Staphylococcus epidermidis, EPI2) was 0.25 µg/mL (≈ 0.336 µM), the MIC ([13]; Mycoplasmopsis synoviae, Mycoplasma synoviae, broth-dilution microtiter, read-out: MIC) was > 50 µg/mL and the MIC [14] was 0.5 µg/mL (≈ 0.672 µM). The MIC ([15]; Mycoplasma) was 50 µg/mL (≈ 67.2 µM), the MIC [16, 25] was 6.25 µg/mL (≈ 8.4 µM) and the MIC ([17]; read-out: MIC) was 8 µg/mL (≈ 10.8 µM). For the same molecule, the MIC ([18]; read-out: MIC) was 25 µg/mL (≈ 33.6 µM) and the MIC ([19]; read-out: MIC) was 25 µg/mL (≈ 33.6 µM).

`CCC1OC(=O)CC(O)C(C)C(OC2OC(C)C(OC3CC(C)(O)C(O)C(C)O3)C(N(C)C)C2O)C(CCSc2nnnn2C)CC(C)C(=O)C=CC(C)=CC1COC1OC(C)C(O)C(OC)C1OC` (stereo not shown) [Compound 5, 20-DH-DO-20-[(1-N-Methyltetrazol-5-yl)thio]tylosin] was tested, and the MIC ([1]; Staphylococcus aureus, S13E) was 2 µg/mL (≈ 1.97 µM), the ED50 [2, 22] was > 6.3 mg/kg and the ED50 [2, 23] was 56 mg/kg. The MIC ([3]; read-out: MIC) was > 50 µg/mL, the MIC ([4]; Haemophilus influenzae, R252) was 128 µg/mL (≈ 126 µM) and the MIC ([5]; Staphylococcus epidermidis EPI1, agar dilution, read-out: MIC) was 1 µg/mL (≈ 0.984 µM). The MIC ([20]; Streptococcus pyogenes C203, agar dilution, read-out: MIC) was 1 µg/mL (≈ 0.984 µM), the MIC ([6]; Staphylococcus aureus, X400) was 2 µg/mL (≈ 1.97 µM) and the MIC ([7]; Staphylococcus aureus, X1.1) was 0.5 µg/mL (≈ 0.492 µM). It also gave an MIC [8] of 1.56 µg/mL (≈ 1.54 µM), an MIC ([9]; GROUP9960, read-out: MIC) of 128 µg/mL (≈ 126 µM) and an MIC ([10]; Staphylococcus aureus V41, penicillin-resistant strain, agar dilution, read-out: MIC) of 1 µg/mL (≈ 0.984 µM). For the same molecule, the MIC ([11]; Mycoplasmoides gallisepticum) was 1.56 µg/mL (≈ 1.54 µM), the MIC ([13]; Mycoplasmopsis synoviae) was 3.12 µg/mL (≈ 3.07 µM) and the MIC [14] was 32 µg/mL (≈ 31.5 µM). The MIC ([21]; Haemophilus influenzae) was > 128 µg/mL, the MIC [15, 26] was > 50 µg/mL and the MIC [16, 25] was > 50 µg/mL. For the same molecule, the MIC ([17]; read-out: MIC) was 128 µg/mL (≈ 126 µM), the MIC ([18]; read-out: MIC) was > 50 µg/mL and the MIC ([19]; read-out: MIC) was > 50 µg/mL.

In the case of `CCC1OC(=O)CC(O)C(C)C(OC2OC(C)C(OC3CC(C)(O)C(O)C(C)O3)C(N(C)C)C2O)C(CCOS(=O)(=O)c2ccc(C)cc2)CC(C)C(=O)C=CC(C)=CC1COC1OC(C)C(O)C(O)C1OC` (stereo not shown) [Compound 56, 20-DH-20-O-(p-Toluenesulfonyl)macrocin], the MIC ([3]; read-out: MIC) is reported as > 50 µg/mL, the MIC [8] is reported as 3.12 µg/mL (≈ 2.95 µM) and the MIC ([11]; Mycoplasmoides gallisepticum) is reported as 1.56 µg/mL (≈ 1.47 µM). For the same molecule, the MIC ([13]; Mycoplasmopsis synoviae) was 12.5 µg/mL (≈ 11.8 µM), the MIC [15, 26] was > 50 µg/mL and the MIC [16, 25] was 6.25 µg/mL (≈ 5.91 µM). The MIC ([18]; read-out: MIC) was > 50 µg/mL and the MIC ([19]; read-out: MIC) was > 50 µg/mL.

`CCC1OC(=O)CC(O)C(C)C(OC2OC(C)C(O)C(N(C)C)C2O)C(CCOc2ccc(CN3CCCCCC3)cc2)CC(C)C(=O)C=CC(C)=CC1COC1OC(C)C(O)C(OC)C1OC` (stereo not shown) [Compound 42, 20-DH-20-O-[p-(Hexahydroazepin-1-ylmethyl)phenyl]desmycosin] was tested, and the MIC ([1]; Staphylococcus aureus S13E, agar dilution) was 0.5 µg/mL (≈ 0.52 µM), the “ED50, Oral” value ([2]; oral) was > 100 mg/kg × 2 and the “ED50, Subcutaneous” value ([2]; subcutaneous) was > 25 mg/kg × 2. The MIC [3] was 12.5 µg/mL (≈ 13 µM), the MIC ([4]; Haemophilus influenzae R252, ampicillin-resistant strain, agar dilution) was 32 µg/mL (≈ 33.3 µM) and the MIC ([5]; Staphylococcus epidermidis EPI1, agar dilution) was 0.5 µg/mL (≈ 0.52 µM). It also gave an MIC ([20]; Streptococcus pyogenes C203, agar dilution) of 0.5 µg/mL (≈ 0.52 µM), an MIC ([6]; Staphylococcus aureus X400, methicillin-resistant strain, agar dilution) of 1 µg/mL (≈ 1.04 µM) and an MIC ([7]; Staphylococcus aureus X1.1, agar dilution) of 0.5 µg/mL (≈ 0.52 µM). It also gave an MIC ([8]; broth-dilution microtiter) of 1.56 µg/mL (≈ 1.62 µM), an MIC [9] of 8 µg/mL (≈ 8.32 µM) and an MIC ([10]; Staphylococcus aureus V41, penicillin-resistant strain, agar dilution) of 0.1 µg/mL (≈ 0.104 µM). For the same molecule, the MIC ([11]; Mycoplasma gallisepticum, broth-dilution microtiter) was 0.39 µg/mL (≈ 0.406 µM), the MIC ([12]; Staphylococcus epidermidis EPI2, agar dilution) was 0.25 µg/mL (≈ 0.26 µM) and the MIC ([13]; Mycoplasma synoviae, broth-dilution microtiter) was 0.195 µg/mL (≈ 0.203 µM). The MIC ([21]; Haemophilus influenzae Holt, ampicillin-sensitive strain, agar dilution) was 32 µg/mL (≈ 33.3 µM), the MIC ([15]; Mycoplasma hyorhinis, broth-dilution microtiter) was 25 µg/mL (≈ 26 µM) and the MIC [16] was 3.12 µg/mL (≈ 3.25 µM). It also gave an MIC [17] of 8 µg/mL (≈ 8.32 µM), an MIC [18] of 12.5 µg/mL (≈ 13 µM) and an MIC [19] of 12.5 µg/mL (≈ 13 µM).

With `CCC1OC(=O)CC(O)C(C)C(OC2OC(C)C(OC3CC(C)(O)C(O)C(C)O3)C(N(C)C)C2O)C(CCN=[N+]=[N-])CC(C)C(=O)C=CC(C)=CC1COC1OC(C)C(O)C(OC)C1OC` (stereo not shown) [Compound 2, 20-DH-DO-20-Azidotylosin] the MIC ([1]; Staphylococcus aureus, S13E) was 1 µg/mL (≈ 1.06 µM), the ED50 [2, 22] was > 6.3 mg/kg and the ED50 [2, 23] was 18 mg/kg. For the same molecule, the MIC ([3]; read-out: MIC) was > 50 µg/mL, the MIC ([4]; Haemophilus influenzae R252, ampicillin-resistant strain, read-out: MIC) was > 128 µg/mL and the MIC [5, 24] was 1 µg/mL (≈ 1.06 µM). The MIC ([20]; Streptococcus pyogenes, C203) was 2 µg/mL (≈ 2.12 µM), the MIC ([6]; Staphylococcus aureus, X400) was 2 µg/mL (≈ 2.12 µM) and the MIC ([7]; Staphylococcus aureus, X1.1) was 2 µg/mL (≈ 2.12 µM). It also gave an MIC [8] of 3.12 µg/mL (≈ 3.31 µM), an MIC ([9]; GROUP9960, read-out: MIC) of 128 µg/mL (≈ 136 µM) and an MIC ([10]; Staphylococcus aureus, V41) of 1 µg/mL (≈ 1.06 µM). It also gave an MIC ([11]; Mycoplasmoides gallisepticum) of 1.56 µg/mL (≈ 1.65 µM), an MIC ([13]; Mycoplasmopsis synoviae) of 12.5 µg/mL (≈ 13.3 µM) and an MIC [14] of 32 µg/mL (≈ 33.9 µM). For the same molecule, the MIC ([21]; Haemophilus influenzae Holt, ampicillin-sensitive strain, read-out: MIC) was > 128 µg/mL, the MIC [15, 26] was > 50 µg/mL and the MIC [16, 25] was 50 µg/mL (≈ 53 µM). For the same molecule, the MIC ([17]; read-out: MIC) was 128 µg/mL (≈ 136 µM), the MIC ([18]; read-out: MIC) was > 50 µg/mL and the MIC ([19]; read-out: MIC) was > 50 µg/mL.
